PubChem BioAssay (NCI)
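The compound was tested at five concentrations on cells cultured in 96-well plates, with a 48-hour exposure period. At the TGI there is no net growth.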

Tests used:
Assay in all cases: NCI-60 cell line screen, 48 h
HOP-92 NSCLC = tested on: HOP-92 NSCLC
SN12C renal = tested on: SN12C renal
HOP-18 NSCLC = tested on: HOP-18 NSCLC
RXF-631 renal = tested on: RXF-631 renal
HL-60(TB) leukemia = tested on: HL-60(TB) leukemia
HOP-62 NSCLC = tested on: HOP-62 NSCLC
KM20L2 colon = tested on: KM20L2 colon
XF 498 CNS = tested on: XF 498 CNS
DLD-1 colon = tested on: DLD-1 colon
LXFL 529 NSCLC = tested on: LXFL 529 NSCLC
UACC-62 melanoma = tested on: UACC-62 melanoma
M19-MEL melanoma = tested on: M19-MEL melanoma
DMS 114 small cell lung = tested on: DMS 114 small cell lung
ACHN renal = tested on: ACHN renal
DMS 273 small cell lung = tested on: DMS 273 small cell lung
SF-539 CNS = tested on: SF-539 CNS
SNB-78 CNS = tested on: SNB-78 CNS

Row | SMILES | TGI (HOP-92 NSCLC) | TGI (SN12C renal) | TGI (HOP-18 NSCLC) | TGI (RXF-631 renal) | TGI (HL-60(TB) leukemia) | TGI (HOP-62 NSCLC) | TGI (KM20L2 colon) | TGI (XF 498 CNS) | TGI (DLD-1 colon) | TGI (LXFL 529 NSCLC) | TGI (UACC-62 melanoma) | TGI (M19-MEL melanoma) | TGI (DMS 114 small cell lung) | TGI (ACHN renal) | TGI (DMS 273 small cell lung) | TGI (SF-539 CNS) | TGI (SNB-78 CNS)
1 | CC(C)C1COC(C(C)(C)C2=N[C@@H](C(C)C)CO2)=N1 (stereo partly drawn) | > 100 µM | > 100 µM | > 100 µM | > 100 µM | > 100 µM | > 100 µM | > 100 µM | > 100 µM | > 100 µM | > 100 µM | > 100 µM | > 100 µM | > 100 µM | > 100 µM | > 100 µM | > 100 µM | 
2 | CC(=O)NC(CCCCN(Cc1ccccc1)C(=O)N(C)N=O)C(=O)NCc1ccccc1 (stereo not drawn) | > 100 µM | > 100 µM |  | > 100 µM |  | > 100 µM | > 100 µM | > 100 µM | > 100 µM | > 100 µM | > 100 µM | > 100 µM | > 100 µM | > 100 µM | > 100 µM | > 100 µM | > 100 µM
3 | Cc1ccc([N+](=O)[O-])cc1NC(=O)/C(CC(=O)c1sc(C(N)=S)nc1C)=N\N | > 100 µM |  | > 100 µM | > 100 µM | > 100 µM | > 100 µM | > 100 µM |  | > 100 µM | > 100 µM | > 100 µM | > 100 µM | > 100 µM | > 100 µM | > 100 µM | > 100 µM | > 100 µM
4 | C[C@@H]1C[C@@H]2C(=O)N(c3ccccc3)C(=O)[C@@H]2c2[nH]c3ccc(Br)cc3c21 | 62.2 µM | > 100 µM | 62.4 µM | > 100 µM | > 100 µM | 47.6 µM | > 100 µM | 81.3 µM | > 100 µM | > 100 µM | > 100 µM | > 100 µM | > 100 µM | > 100 µM | > 100 µM | > 100 µM | 71 µM
5 | O=C(c1nc2ccc(Cl)cc2[nH]c1=O)C(O)c1ccco1 (stereo not drawn) | > 100 µM |  | > 100 µM | > 100 µM | > 100 µM |  | 85.1 µM |  | > 100 µM | > 100 µM | > 100 µM | > 100 µM | > 100 µM | > 100 µM | > 100 µM | > 100 µM | 
6 | FC(F)(F)c1nc2c(ccc3[nH]c4c(-c5ccccc5)nccc4c32)[nH]1 | > 100 µM | > 100 µM | > 100 µM | > 100 µM | > 100 µM | > 100 µM | > 100 µM | > 100 µM | > 100 µM | > 100 µM | > 100 µM | > 100 µM | > 61 µM | > 100 µM |  | > 100 µM | > 100 µM
7 | CC(=O)OCc1ncccc1C(OC(C)=O)OC(C)=O | > 100 µM | > 100 µM | > 100 µM |  | > 100 µM | > 100 µM | > 100 µM | > 100 µM | > 100 µM | > 100 µM | > 100 µM | > 100 µM | > 100 µM | > 100 µM | > 100 µM | > 100 µM | > 100 µM
